# Source: patent publication US5972955A, “Water soluble C-ring analogues of 20(S)-camptothecin” (Dr. Reddy's Research Foundation, priority 1996, dated 1999)
# “Also recorded” adds a separate entry of the source.
# Tests used:
# [1] = tested on: NCI's 60 human tumor cell line assay; test: NCI 60 human tumor cell line assay, mean growth inhibition (Table 1); type: cell-based; conditions: read-out: IC50 = the mean value of the minimum drug concentration of the agent required to produce 50% cell growth inhibition (GI50); mean over NCI's 60 human tumor cell lines; 48 h; Sulforhodamine B
# Description: (§1) Inoculates were allowed a preincubation period of 24 h at 37° C. for stabilization.
# ^a IC50 = the mean value of the minimum drug concentration (μm) of
# NCI's 60 human tumor cell line assay.
# [2] = cited from earlier work
# topoisomerase I = conditions: cited from earlier work
# [3] = in vivo; cited from earlier work
# HOP 62 = test: NCI in vitro growth inhibition, NSLC HOP 62; type: cell-based; conditions: Homo sapiens, read-out: 50% Growth Inhibition (GI 50); HOP 62, NSLC; 48 h
# Description: as §1
# T 47D = test: NCI in vitro growth inhibition, breast T 47D; type: cell-based; conditions: Homo sapiens, T47D, read-out: 50% Growth Inhibition (GI 50), 48 h
# Description: as §1
# SF-268 = test: NCI in vitro growth inhibition, CNS SF-268; type: cell-based; conditions: Homo sapiens, SF-268, 48 h, read-out: 50% Growth Inhibition (GI 50)
# Description: as §1
# ACHN = test: NCI in vitro growth inhibition, renal ACHN; type: cell-based; conditions: Homo sapiens, read-out: 50% Growth Inhibition (GI 50), 48 h
# Description: as §1
# MCF-7 = test: NCI in vitro growth inhibition, breast MCF-7; type: cell-based; conditions: Homo sapiens, MCF7, read-out: 50% Growth Inhibition (GI 50); MCF-7, breast; 48 h
# Description: as §1
# CAKI-1 = test: NCI in vitro growth inhibition, renal CAKI-1; type: cell-based; conditions: Homo sapiens, read-out: 50% Growth Inhibition (GI 50); CAKI-1, renal; 48 h
# Description: as §1
# CCRF-CEM = test: NCI in vitro growth inhibition, leukemia CCRF-CEM; type: cell-based; conditions: Homo sapiens, read-out: 50% Growth Inhibition (GI 50), 48 h
# Description: as §1
# SR = test: NCI in vitro growth inhibition, leukemia SR; type: cell-based; conditions: Homo sapiens, read-out: 50% Growth Inhibition (GI 50), 48 h
# Description: as §1
# H 522 = test: NCI in vitro growth inhibition, NSLC H 522; type: cell-based; conditions: Homo sapiens, NCI-H522, read-out: 50% Growth Inhibition (GI 50); H 522, NSLC; 48 h
# Description: as §1
# M-14 = test: NCI in vitro growth inhibition, melanoma M-14; type: cell-based; conditions: Homo sapiens, M14, read-out: 50% Growth Inhibition (GI 50); M-14, melanoma; 48 h
# Description: as §1
# MCF7/ADR = test: NCI in vitro growth inhibition, breast MCF7/ADR; type: cell-based; conditions: Homo sapiens, NCI/ADR-RES, read-out: 50% Growth Inhibition (GI 50), 48 h
# Description: as §1
# MOLT-4 = test: NCI in vitro growth inhibition, leukemia MOLT-4; type: cell-based; conditions: Homo sapiens, read-out: 50% Growth Inhibition (GI 50); MOLT-4, leukemia; 48 h
# Description: as §1
# HL 60 = test: NCI in vitro growth inhibition, leukemia HL 60; type: cell-based; conditions: Homo sapiens, read-out: 50% Growth Inhibition (GI 50); HL 60, leukemia; 48 h
# Description: as §1
# SF 295 = test: NCI in vitro growth inhibition, CNS SF 295; type: cell-based; conditions: Homo sapiens, read-out: 50% Growth Inhibition (GI 50); SF 295, CNS; 48 h
# Description: as §1
# 786-O = test: NCI in vitro growth inhibition, renal 786-O; type: cell-based; conditions: Homo sapiens, 786-0, read-out: 50% Growth Inhibition (GI 50), 48 h
# Description: as §1
# SK MEL-5 = test: NCI in vitro growth inhibition, melanoma SK MEL-5; type: cell-based; conditions: Homo sapiens, read-out: 50% Growth Inhibition (GI 50); SK MEL-5, melanoma; 48 h
# Description: as §1
# H 23 = test: NCI in vitro growth inhibition, NSLC H 23; type: cell-based; conditions: Homo sapiens, NCI-H23, read-out: 50% Growth Inhibition (GI 50); H 23, NSLC; 48 h
# Description: as §1
# SF-539 = test: NCI in vitro growth inhibition, CNS SF-539; type: cell-based; conditions: Homo sapiens, read-out: 50% Growth Inhibition (GI 50); SF-539, CNS; 48 h
# Description: as §1
# LOX IMVI = test: NCI in vitro growth inhibition, melanoma LOX IMVI; type: cell-based; conditions: Homo sapiens, read-out: 50% Growth Inhibition (GI 50), 48 h
# Description: as §1
# Human Serum Albumin = conditions: in the presence of HSA at 37° C.; cited from earlier work
# H 460 = test: NCI in vitro growth inhibition, NSLC H 460; type: cell-based; conditions: Homo sapiens, NCI-H460, read-out: 50% Growth Inhibition (GI 50); H 460, NSLC; 48 h
# Description: as §1
# UACC 62 = test: NCI in vitro growth inhibition, melanoma UACC 62; type: cell-based; conditions: Homo sapiens, read-out: 50% Growth Inhibition (GI 50); UACC 62, melanoma; 48 h
# Description: as §1
# [4] = compared with 20(RS)-camptothecin; cited from earlier work
compound,measurement,setting,value
"CC[C@@]1(O)C(=O)OCc2c1cc1n(c2=O)C(NCCN2CCCC2)c2cc3ccccc3nc2-1 (stereo partly shown) [Example 15, 5-(Pyrrolidinoethylamino)camptothecin]",IC50,[1],> 30000 nM
CC[C@@]1(O)C(=O)OCc2c1cc1n(c2=O)C(NCC(O)CO)c2cc3c(OC)cccc3nc2-1 (stereo partly shown) [Example 9],IC50,[1],6600 nM
CC[C@@]1(O)C(=O)OCc2c1cc1n(c2=O)Cc2cc3ccccc3nc2-1 [20(S)-Camptothecin],water solubility (in words),[2],low water solubility
same,inhibition of topoisomerase I (in words),topoisomerase I,inhibitor of topoisomerise I
same,side effects / toxicity (in words),[3],unacceptable side effects on humans; also recorded: high toxicity problems
"CC[C@@]1(O)C(=O)OCc2c1cc1n(c2=O)C(NCCN(C)C)c2cc3c(OC)cccc3nc2-1 (stereo partly shown) [Example 7, 5-(N,N-Dimethylethylenediamino)-9-methoxycamptothecin]",IC50,[1],9540 nM
"CC[C@@]1(O)C(=O)OCc2c1cc1n(c2=O)C(NC)c2cc3ccccc3nc2-1 (stereo partly shown) [Example 12, 5-Methylaminocamptothecin]",GI50,HOP 62,1730 nM
same,GI50,T 47D,4670 nM
same,IC50,[1],4670 nM
same,GI50,SF-268,850 nM
same,GI50,ACHN,970 nM
same,GI50,MCF-7,1250 nM
same,GI50,CAKI-1,2290 nM
same,GI50,CCRF-CEM,230 nM
same,GI50,SR,30 nM
same,GI50,H 522,2880 nM
same,GI50,M-14,2180 nM
same,GI50,MCF7/ADR,1940 nM
same,GI50,MOLT-4,150 nM
same,GI50,HL 60,220 nM
same,GI50,SF 295,1120 nM
same,GI50,786-O,4070 nM
same,GI50,SK MEL-5,2510 nM
same,GI50,H 23,2570 nM
same,GI50,SF-539,1810 nM
same,GI50,LOX IMVI,2340 nM
CCc1c2c(nc3ccc(OC(=O)N4CCC(N5CCCCC5)CC4)cc13)-c1cc3c(c(=O)n1C2)COC(=O)[C@]3(O)CC [CPT-11],percentage (%) of lactone form at equilibrium (in words),Human Serum Albumin,a higher percentage (%) of lactone form at equilibrium than 20(S) camptothecin of the formula 2 and 9-aminocamptothecin of the formula 5
"CC[C@@]1(O)C(=O)OCc2c1cc1n(c2=O)C(NCCN(C)C)c2cc3ccccc3nc2-1 (stereo partly shown) [Example 4, 5-(N,N-Dimethylethylenediamino)camptothecin]",IC50,[1],> 30000 nM
CC[C@@]1(O)C(=O)OCc2c1cc1n(c2=O)C(NCCN2CCCCC2)c2cc3c(OC)cccc3nc2-1 (stereo partly shown) [9-Methoxy-5-piperidinoethylamino CPT],IC50,[1],28100 nM
CC[C@@]1(O)C(=O)OCc2c1cc1n(c2=O)Cc2cc3c(CN(C)C)c(O)ccc3nc2-1 [Topotecan],percentage (%) of lactone form at equilibrium (in words),Human Serum Albumin,a higher percentage (%) of lactone form at equilibrium than 20(S) camptothecin of the formula 2 and 9-aminocamptothecin of the formula 5
"CC[C@@]1(O)C(=O)OCc2c1cc1n(c2=O)C(NO)c2cc3cc(O)ccc3nc2-1 (stereo partly shown) [Example 11, 10-Hydroxy-5-hydroxylaminocamptothecin]",GI50,HOP 62,7410 nM
same,GI50,T 47D,1280 nM
same,IC50,[1],10000 nM
same,GI50,SF-268,2450 nM
same,GI50,ACHN,3160 nM
same,GI50,MCF-7,4070 nM
same,GI50,CAKI-1,4260 nM
same,GI50,SR,100 nM
same,GI50,H 522,5370 nM
same,GI50,M-14,4260 nM
same,GI50,H 460,1540 nM
same,GI50,MCF7/ADR,> 30000 nM
same,GI50,MOLT-4,10 nM
same,GI50,HL 60,1860 nM
same,GI50,SF 295,4890 nM
same,GI50,786-O,2690 nM
same,GI50,SK MEL-5,15000 nM
same,GI50,H 23,4160 nM
same,GI50,SF-539,3160 nM
same,GI50,LOX IMVI,2690 nM
same,GI50,UACC 62,4160 nM
"CCN(CC)CCCNC1c2cc3c(OC)cccc3nc2-c2cc3c(c(=O)n21)COC(=O)C3(O)CC (stereo not shown) [9-Methoxy-5-(N,N-diethylpropylenediamino) CPT]",IC50,[1],8310 nM
CC[C@@]1(O)C(=O)OCc2c1cc1n(c2=O)C(NCCN2CCCC2)c2cc3c(OC)cccc3nc2-1 (stereo partly shown) [9-Methoxy-5-pyrrolidinoethylamino CPT],IC50,[1],31600 nM
"CC[C@@]1(O)C(=O)OCc2c1cc1n(c2=O)C(NCCN2CCCCC2)c2cc3ccccc3nc2-1 (stereo partly shown) [Example 16, 5-(Piperidinoethylamino)camptothecin]",IC50,[1],23400 nM
"CC[C@@]1(O)C(=O)OCc2c1cc1n(c2=O)C(NCCO)c2cc3ccccc3nc2-1 (stereo partly shown) [Example 2, 5-(2'-hydroxyethylamino)camptothecin]",IC50,[1],> 30000 nM
"CCc1c2c(nc3ccc(O)cc13)-c1cc3c(c(=O)n1C2)COC(=O)[C@]3(O)CC [SN-38, 7-ethyl-10-hydroxycamptothecin]",percentage (%) of lactone form at equilibrium (in words),Human Serum Albumin,a higher percentage (%) of lactone form at equilibrium than 20(S) camptothecin of the formula 2 and 9-aminocamptothecin of the formula 5
"CC[C@@]1(O)C(=O)OCc2c1cc1n(c2=O)C(NCc2ccccc2)c2cc3ccccc3nc2-1 (stereo partly shown) [Example 5, 5-Benzylaminocamptothecin]",IC50,[1],> 30000 nM
CCc1c2c(nc3ccc(OC)cc13)-c1cc3c(c(=O)n1C2)COC(=O)[C@]3(N)CC [formula 6],in vivo antitumor activity (in words),[4],increased in vivo antitumor activity than 20(RS)-camptothecin
"CC[C@@]1(O)C(=O)OCc2c1cc1n(c2=O)C(NO)c2cc3ccccc3nc2-1 (stereo partly shown) [Example 1, 5-Hydroxylaminocamptothecin]",GI50,HOP 62,380 nM
same,GI50,T 47D,200 nM
same,IC50,[1],2390 nM
same,GI50,ACHN,400 nM
same,GI50,MCF-7,340 nM
same,GI50,SR,530 nM
same,GI50,H 522,200 nM
same,GI50,M-14,370 nM
same,GI50,H 460,480 nM
same,GI50,MCF7/ADR,2180 nM
same,GI50,MOLT-4,180 nM
same,GI50,HL 60,380 nM
same,GI50,SF 295,250 nM
same,GI50,786-O,560 nM
same,GI50,SK MEL-5,3380 nM
same,GI50,H 23,1620 nM
same,GI50,SF-539,1200 nM
same,GI50,LOX IMVI,3380 nM
same,GI50,UACC 62,370 nM
C=C1C(=O)OCc2c1cc1n(c2=O)Cc2c-1nc1ccc(O)cc1c2CC [formula 8],inhibition of topoisomerase I (in words),topoisomerase I,potent camptothecin like inhibition of topoisomerase I activity
"CC[C@@]1(O)C(=O)OCc2c1cc1n(c2=O)C(NCCCCO)c2cc3c(OC)cccc3nc2-1 (stereo partly shown) [Example 10, 5-(4'-hydroxybutylamino)-9-methoxycamptothecin]",IC50,[1],13100 nM
CC[C@@]1(O)C(=O)OCc2c1cc1n(c2=O)C(NCCN2CCOCC2)c2cc3c(OC)cccc3nc2-1 (stereo partly shown) [9-Methoxy-5-morphilinoethylamino CPT],IC50,[1],> 30000 nM
"CCN(CC)CCNC1c2cc3c(OC)cccc3nc2-c2cc3c(c(=O)n21)COC(=O)[C@]3(O)CC (stereo partly shown) [9-Methoxy-5-(N,N-diethylethylenediamino) CPT]",IC50,[1],19100 nM
"CC[C@@]1(O)C(=O)OCc2c1cc1n(c2=O)C(NCCCl)c2cc3ccccc3nc2-1 (stereo partly shown) [Example 6, 5-(2'-chloroethylamino)camptothecin]",IC50,[1],19000 nM
